Assays:
[1] = test system: adult S. mansoni; assay: Phenotypic screen of adult S. mansoni worms, severity scores and descriptors; assay type: cell-based, Schistosoma mansoni; details: for Descriptors (10 µM) 1 h / Severity Scores (10 μM) 1 h / Descriptors (10 µM) 5 h / Severity Scores (10 μM) 5 h / Descriptors (10 µM) 24 h / Severity Scores (10 μM) 24 h / Descriptors (10 µM) 48 h / Severity Scores (10 μM) 48 h: adult S. mansoni; for Descriptors (10 µM) 1 h / Descriptors (10 µM) 5 h / Descriptors (10 µM) 24 h / Descriptors (10 µM) 48 h: phenotypic descriptors; for Severity Scores (10 μM) 1 h / Severity Scores (10 μM) 5 h / Severity Scores (10 μM) 24 h / Severity Scores (10 μM) 48 h: scale 0 (no activity) to 4 (maximal activity); for bioactivity against adult S. mansoni: adult schistosomes; for Severity Scores (10 μM) 1 h / Severity Scores (10 μM) 5 h / Severity Scores (10 μM) 24 h / Severity Scores (10 μM) 48 h / bioactivity against adult S. mansoni: 10 μM
Text: Because the schistosome parasite can present multiple and dynamic phenotypic responses to chemical insult,[16] we employ a constrained nomenclature of descriptors to describe the changes in the parasite as a function of time and concentration (e.g., motility, density, and shape; and in the case of the adult parasite, an inability to adhere to the bottom of the assay dish). These descriptors are converted into severity scores on a scale of 0 (green)–4 (severest/red) that allow for partially quantitative comparisons of compound effects.[1]−[19] […] The descriptors themselves and their respective scores are detailed in the Supporting Information, Table S1. Severity score data are presented in the results (with the corresponding descriptors detailed in the Supporting Information, Tables S2–S8), and eight new analogs developed and synthesized in support of this effort are described. Finally, absorption, distribution, metabolism and excretion (ADME) data of all compounds presented in this work are reported in the Supporting Information, Table S15.
Table S1. Descriptors and associated severity scores used for S. mansoni adults.
R (rounded or shape altered 1
On sides (adults unable to 1
Shrunk (adults are shorter 1
surface (tegument) of adults)
dfailed to create analytical method
Maintenance of the Schistosoma mansoni life cycle (NMRI isolate), the preparation of adult worms (≥ 42-
days-old), and their co-incubation with test compounds were as described.7-9 Phenotypic responses were
visually recorded using a constrained nomenclature and converted to severity scores on a scale from zero
(no activity) to 4 (maximal activity).8, 9 Use of hamsters for maintaining the S. mansoni life-cycle was
approved by the Institutional Animal Care and Use Committee of the University of California San Diego.
The human myelomonocytic cell line THP -1 was grown at 37 °C and 5% CO2 in RPMI-1640 supplemented
with 10% iFBS, 2 mM glutamate, 100 U/mL penicillin and […] streptomycin.
Drug toxicity to HepG2 cells .10 HepG2 cells line were obtained from the American Type Culture
Collection and cultured in Minimal Essential Medium (MEM) supplemented with 0.19% sodium
bicarbonate, 10% Fetal Bovine Serum, 2 mM L -glutamine, 0.1 mM MEM non-essential amino, 0.009
mg/mL insulin, 1.76 mg/mL bovine serum albumin. The viability of the cells was measured using the MTT
(thiazolyl blue reduction) method. Briefly, ninety -six-well plates were seeded with 2.5 × 10^4 cells/well in
170 ml of culture medium and incubated overnight in 5% CO 2 at 37 °C. Cells were exposed to different
experimental compounds in DMSO. After 48 hours incubation, the viability of the cells was assessed using
MTT (thiazolyl blue reduction) as a dose response assay (11 two -fold serial dilutions) to obtain a calculated
IC50 determination. 4-Azaindolo[2,1-b]quinazoline-6,12-dione is used as a toxicity positive control and
each assay plate includes the following 3 additional controls: a) background control: no cells and no drug
was added, b) target control: cells added but no drugs, and c) DMSO control: same as the target control
except the culture media contains 0.6% DMSO. Absorbance was determined in all wells using a Perkin
Elmer, Ensight plate reader. The fifty percent inhibitory concentrations (IC50’s) were determined using
GraphPad Prism nonlinear regr ession (sigmoidal dose -response, variable slope) equation .
ADME Experiment Protocols
Aqueous pH 7.4 Solubility. Compounds were dried down from 10 mM DMSO solutions using centrifugal
evaporation technique. Phosphate buffer (0.1 M pH 7.4) was added and StirStix were inserted in the glass
vials, with shaking then performed at a constant temperature of 25 °C for 20 -24 h. This step was followed
by double centrifugation with a tip wash in between, to ensure that no residues of the dried compounds
interfere. The solutions were diluted before analysis and quantification using LC/MS/MS was performed.

[2] = Rat hepatocyte Clint; assay type: in vitro ADME; details: rat hepatocytes, intrinsic clearance; read-out: RH CLint
[3] = Log D7.4 shake-flask octanol-water; assay type: physicochemical; details: pH 7.4
Procedure: Log D7.4. Shake-flask octanol-water distribution coefficient was determined at pH 7.4 (Log D7.4). The aqueous solution used is 10 mM sodium phosphate pH 7.4 buffer. The method has been validated for Log D7.4 ranging from -2 to 5.0.
Human Plasma Protein Binding (PPB). PPB was determined using equilibrium dialysis (RED device) to separate free from bound compound. The amount of compound in plasma (10 µM initial concentration) and in dialysis buffer (pH 7.4 phosphate buffer) was measured by LC-MS/MS after equilibration at 37 °C in a dialysis chamber. The fraction unbound (fu) is reported.
Human Liver Microsomal Clint. In vitro intrinsic clearance was determined from human liver microsomes using a standard approach.11 Following incubation and preparation, the samples were analyzed using […]
Rat Hepatocyte Clint. In vitro intrinsic clearance was determined from rat hepatocytes using a standard approach.11 Following incubation and preparation, the samples were analyzed using LC/MS/MS. Refined […]
Calculated LogP and LogD values. Both LogP and LogD predictions are based on a modified version of the method12 where the predicted partition coefficients are composed of the molecules’ atomic increments.
General Chemistry. All starting materials were commercially obtained and were used without further purification, unless specified. Reaction solvents were purified by passage through alumina columns on a purification system manufactured by Innovative Technology (Newburyport, MA). NMR spectra were obtained on Varian NMR systems, operating at 400 or 500 MHz for 1 H acquisitions. LCMS analysis was performed using a Waters AllianceHT e2795 reverse phase HPLC (Waters SunFire C18 4.6 × 50 mm, 3.5 μm column), with a Waters 2996 photodiode array detector scanning from 210 nm to 600 nm, and Waters Micromass ZQ detector (electrospray ionization). Where required, final compounds were purified by preparative reverse phase HPLC (columns Waters Symmetry RP8 30 × 50 mm, 5 μm column, or OBD RP18 30 × 50 mm, 5 μm), with a single wavelength UV−visible detector and Waters Micromass ZQ (electrospray ionization).

hepatocyte CLint [2] [µL/min/1e6 cells] | logD [3] | SMILES | Descriptors (10 µM) 1 h [1] | Severity Scores (10 μM) 1 h [1] | Descriptors (10 µM) 5 h [1] | Severity Scores (10 μM) 5 h [1] | Descriptors (10 µM) 24 h [1] | Severity Scores (10 μM) 24 h [1] | Descriptors (10 µM) 48 h [1] | Severity Scores (10 μM) 48 h [1] | bioactivity against adult S. mansoni [1]
8.9 | 0.7 | O=C(O)CN1CCN(c2ncc(-c3ccc4c(Nc5cnccn5)ccnc4c3)cn2)CC1 [3b] | none | 0 | none | 0 | none | 0 | none | 0 | no bioactivity
45 | 4.2 | CCCN1CCN(c2ncc(-c3ccc4c(Nc5cnccn5)ccnc4c3)cn2)CC1 [4c] | none | 0 | – | 1 | On sides, S | 2 | – | 4 | activity after 5 h
52 | 3.3 | Cc1c(-c2cnc(N3CCN(C)CC3)nc2)ccc2c(Nc3cnccn3)ccnc12 [9a] | none | 0 | none | 0 | – | 1 | – | 2 | moderate potency after 24 h
8.1 | 1.7 | CN1CCN(c2ncc(-c3ccc4c(N[C@@H]5CCCC[C@H]5O)ccnc4c3)cn2)CC1 [S1c] | none | 0 | none | 0 | none | 0 | – | – | no significant bioactivity
– | 1.7 | CN1CCN(c2ncc(-c3ccc4c(NC5CCOCC5)ccnc4c3)cn2)CC1 [S1d] | none | 0 | none | 0 | none | 0 | none | 0 | no significant bioactivity
23 | 2 | CN1CCN(c2ncc(-c3ccc4c(NCC5CCOCC5)ccnc4c3)cn2)CC1 [S1e] | none | 0 | none | 0 | none | 0 | – | 1 | no significant bioactivity

Reference: paper PMC7073886, “Structure–Bioactivity Relationships of Lapatinib Derived Analogs against Schistosoma mansoni” (ACS Medicinal Chemistry Letters, 2020)
